# Results: US7615536B2, “1,4-benzothiazepine 1,1-dioxide derivative, process for its preparation, medicaments comprising this compound, and use thereof as a hypolipidaemic” (Sanofi-Aventis Deutschland GmbH, priority 2005, dated 2009)
# Molecular target: T1, recombinantly expressed human sodium-dependent ileal bile acid transporter (IBAT, ASBT, SLC10A2) (Homo sapiens, UniProt Q12908)
# T1 construct: Bases 599 to 1645 correspond to the complete coding region of the human IBAT; expressed in transfected cells
# T1 sequence (Q12908 1-348): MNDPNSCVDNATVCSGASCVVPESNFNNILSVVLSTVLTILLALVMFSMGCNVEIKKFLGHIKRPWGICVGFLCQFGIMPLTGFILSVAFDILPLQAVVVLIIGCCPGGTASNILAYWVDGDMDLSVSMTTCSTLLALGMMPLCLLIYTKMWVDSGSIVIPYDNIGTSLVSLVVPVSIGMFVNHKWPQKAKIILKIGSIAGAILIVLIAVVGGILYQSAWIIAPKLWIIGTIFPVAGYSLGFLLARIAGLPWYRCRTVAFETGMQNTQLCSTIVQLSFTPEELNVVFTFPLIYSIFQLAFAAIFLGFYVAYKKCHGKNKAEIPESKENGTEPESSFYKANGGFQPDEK
# Assay: in vitro IBAT inhibition test ([3H]-taurocholic acid uptake into CHO-hIBAT cells)
# Type: cell-based
# Experimental: Biological testing of the compound A according to the invention was carried out using the in vitro IBAT inhibition test. This test examines the effect of the compound according to the invention on the transport activity of the recombinantly expressed human sodium-dependent ileal bile acid transporter (IBAT=ileal Na^+/bile acid contransporter, ASBT=apical sodium-dependent bile acid transporter, SLC10A2=solute carrier family 10, member 2).
# Preparation for and practice of the in vitro IBAT inhibition test:
# 1. Cloning of an Expression Vector for Human IBAT […]
# CHO-hIBAT cells were sown at a concentration of 40 000 cells per well in cell culture medium in poly-D-lysine-coated 96-well plates and cultivated for 24h. […] Finally, 100 μL of scintillation fluid were added to each well, and the radioactivity taken up into the cells was determined in a MicroBeta scintillation microplate reader from Wallac.
# The half-maximal inhibitory effect of the test compound (IC50 value, inhibitory concentration 50) was determined as follows:
# • 1. […] This is the value measured in the absence of substance, measured in sodium-comprising transport assay buffer. • 2. […] This is the value measured in the absence of substance, measured in sodium-free transport assay buffer. • 3. […]
compound,measurement,setting,value
CCCCC1(CCCC)CS(=O)(=O)c2ccc(N(C)C)cc2[C@@H](c2cccc(NC(=O)N[C@@H]3O[C@H](CO)[C@@H](O)[C@H](O)[C@H]3O)c2)N1 [Example A],IC50,"CHO-hIBAT cells, taurocholic acid 10 μM, 60 min at room temperature",57 nM
same,activity higher compared to comparative example from EP 1 169 313,"relative to compound 11a, from the IC50 (human IBAT) values",560%
